Data from US7700654B2 (LTS Lohmann Therapie-Systeme AG, priority 2005, dated 2010).

Columns and labels:
[1] = cited from earlier work
[2] = environment; cited from earlier work
LNCaP cells = test: growth inhibition of human prostate carcinoma cells (cell counting); assay type: cell-based; settings: 0.1 μM OH—F
Excerpt: The growth of prostate cells and prostate cancer cells is originally dependent on androgens.
The cells were trypsinized and counted using a counting cell chamber on the indicated days.

[3] = target: T1, human androgen receptor (hAR) (Homo sapiens, UniProt P10275); test: reporter gene-based (MMTV-luc luciferase) test for antiandrogenic activity in transfected CV1 cells; assay type: cell-based; settings: compounds at 10 μM; high R1881 concentration 3×10^−8 M
T1 construct: expressed in transfected cells; host or cells: CV1 monkey kidney cells (lacking endogenous androgen receptor)
T1 sequence (P10275 1-920): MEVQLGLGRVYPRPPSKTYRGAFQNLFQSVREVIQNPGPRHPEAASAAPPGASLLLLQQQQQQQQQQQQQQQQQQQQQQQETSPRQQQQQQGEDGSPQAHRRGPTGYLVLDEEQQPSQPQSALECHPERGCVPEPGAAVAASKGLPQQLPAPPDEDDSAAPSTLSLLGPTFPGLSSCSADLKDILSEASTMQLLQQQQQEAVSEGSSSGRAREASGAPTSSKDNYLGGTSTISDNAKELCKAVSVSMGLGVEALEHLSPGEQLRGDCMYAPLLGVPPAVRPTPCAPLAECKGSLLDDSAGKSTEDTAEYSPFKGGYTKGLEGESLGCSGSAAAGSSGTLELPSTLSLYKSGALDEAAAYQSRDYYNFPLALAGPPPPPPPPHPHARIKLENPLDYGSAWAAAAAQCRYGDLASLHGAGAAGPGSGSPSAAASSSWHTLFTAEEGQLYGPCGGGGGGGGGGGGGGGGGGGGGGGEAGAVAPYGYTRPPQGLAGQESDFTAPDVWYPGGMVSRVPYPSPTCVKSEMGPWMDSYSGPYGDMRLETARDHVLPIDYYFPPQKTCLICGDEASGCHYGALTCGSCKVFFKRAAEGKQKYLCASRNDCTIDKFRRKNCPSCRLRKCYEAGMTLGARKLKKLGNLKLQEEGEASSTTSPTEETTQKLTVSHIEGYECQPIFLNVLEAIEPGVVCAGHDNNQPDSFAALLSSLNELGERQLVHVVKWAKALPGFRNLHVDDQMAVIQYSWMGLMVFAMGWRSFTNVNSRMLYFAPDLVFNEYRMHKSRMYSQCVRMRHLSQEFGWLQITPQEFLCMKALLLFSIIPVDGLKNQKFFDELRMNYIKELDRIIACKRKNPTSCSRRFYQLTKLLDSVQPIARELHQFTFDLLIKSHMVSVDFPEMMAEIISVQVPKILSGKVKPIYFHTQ
Experimental: Monkey kidney cells, line CV1, lacking endogenous androgen receptor were cultured in Dulbecco's modified Eagle's medium (DMEM), supplemented with 10% (v/v) fetal calf serum, penicillin (100 IU/ml) and streptomycin (100 IU/ml) at 37° C. and 5% CO2.
For the transfection experiments, cells were seeded onto 6-well tissue culture plates (Nunc, Roskilde, Denmark) with a density of 1.2×10^5 cells per well and grown in DMEM medium supplemented with 10% (v/v) dextran-coated activated charcoal stripped serum. Six hours after seeding, the cells were transfected by using the Ca3(PO4)2 method. The human androgen receptor (hAR) expression vector (0.2 μg) was cotransfected with 1 μg of the reporter plasmid MMTV-luc and 0.2 μg of the cytomegalovirus (CMV)-driven β-galactosidase expression […], as internal control for transfection efficiency. After 14 hours, the medium was replaced either without (white bars in FIGS. […] 1), fractions (FIG. 2) or substances (FIG. 3). After an additional 48 hours, cells were harvested and assayed for luciferase and β-galactosidase activity.
Luciferase activity was determined by injecting luciferin and measuring light emission at 562 nm and expressed as relative light units (RLU) by using the values of β-galactosidase activity for normalisation of the luciferase activity. All transfection assays shown were performed in duplicate and were repeated at least twice.
For determining antiandrogenic activity in the various extracts from the bark of P. africanum, the extracts were used at a concentration of 300 μg/ml.
For determining the antiandrogenic activity in the fractions of the selective methylene chloride extracts, 2 μl of the respective fraction was used, corresponding to a final concentration of 30 μg/ml. Fractions F6 to F10 were additionally tested with 4 μl, corresponding to 60 μg/ml final concentration.

| SMILES | inhibition of the AR-mediated transactivation, compared with NBBS (FIG. 6) [3] | further results |
| --- | --- | --- |
| CCCCNS(=O)(=O)c1ccccc1 [NBBS, N-butylbenzenesulfonamide] |  | solubility in alcohols and benzene ([1]; alcohols and benzene): moderate solubility; solubility in water ([1]; water): practically insoluble; stability [2]: very stable |
| CC(C)(O)C(=O)Nc1ccc([N+](=O)[O-])c(C(F)(F)F)c1 [OH—F, hydroxyflutamide] |  | proliferation of LNCaP cells (FIG. 4) (LNCaP cells): did not lead to reduction in cell proliferation |
| CC(C)=CCC/C(C)=C/CNS(=O)(=O)c1ccccc1 [S4, N-[(2E)-3,7-Dimethylocta-2,6-diene-1-yl]benzenesulfonamide] | enhanced the antiandrogenic activity |  |
| CCCCCNS(=O)(=O)c1ccccc1 [S9, N-Pentylbenzenesulfonamide] | enhanced the antiandrogenic activity |  |
| CCCCNS(=O)(=O)c1cccc(C(F)(F)F)c1 [S10, N-Butyl-3-(trifluoromethyl)benzenesulfonamide] | enhanced antiandrogenic activity |  |
| CC(C)=CCC/C(C)=C/CNS(=O)(=O)c1cccc(C(F)(F)F)c1 [S11, N-[(2E)-3,7-dimethylocta-2,6-diene-1-yl]-3-(tri-fluoromethyl)benzenesulfonamide] | enhanced antiandrogenic activity |  |
| CCCCCCCCCCCCNS(=O)(=O)c1ccccc1 [S12, N-Dodecylbenzenesulfonamide] | weakened the androgen antagonistic potency | melting point: 59 to 61 °C |
| CCCCNS(=O)(=O)c1ccc([N+](=O)[O-])c(C(F)(F)F)c1 [S13, N-Butyl-4-nitro-3-(trifluoromethyl)benzenesulfonamide] | enhanced antiandrogenic activity |  |
| CC(C)=CCC/C(C)=C/CNS(=O)(=O)c1ccc([N+](=O)[O-])c(C(F)(F)F)c1 [S14, N-[(2E)-3,7-Dimethylocta-2,6-diene-1-yl]-4-nitro-3-(trifluoromethyl)-benzenesulfonamide] | enhanced antiandrogenic activity |  |
